We go through 70 molecules from PubChem BioAssay AID179 (DTP/NCI, 2004).

Several values for one entry are separate records, joined by “and”; a condition that tells them apart may be missing. Equal values may be shown once. Activity calls are given as the source filed them.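 How the source made its calls: active means compounds giving half or more protection of infected cells from virus-caused growth loss, again on retest; inactive means the rest.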 Where a SMILES comes first, the peptide text is derived from it. The star is where a group is joined. Boc = CC(C)(C)OC(=O)*; OBn = c1ccc(CO*)cc1

The subject of the experiment is CEM cells HIV-1 protection, formazan growth assay. The experiment in a line: NCI AIDS Antiviral Assay. Conditions: for IC50: measured here: growth of uninfected CEM cells. In short, it runs like this:
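Steps: treat uninfected and HIV-1-infected human CEM cells at five drug levels; quantify growth by soluble formazan; retest any compound reaching 50% protection; classify actives from the retest.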

For `CC(=O)Oc1ccc(-c2cc3ccccc3oc2=O)cc1`, the EC50 (usually the midpoint of the concentration-response curve) was > 200 µM and the half-maximal inhibitory concentration (IC50) (commonly the concentration at which inhibition is half-maximal) turned out to be 28.2 µM.

On to `COc1ccc(NC2CC(C)N(C(=O)c3ccccc3)O2)cc1` (stereo not given), for which the EC50 was > 200 µM and the 50% inhibitory concentration (IC50) came out at 95.5 µM. The like results for `CCOC(=O)/C(=C/c1cn(C(C)=O)c2ccccc12)P(C)(=O)OCC` (stereo not given) were, in that order, > 200 µM and 37.2 µM. The like results for `CCOC(=O)c1sc2nc(SC)nc3c2c1NCN3c1ccccc1Cl` were, in that order, > 200 µM and > 200 µM.

As for `CC(=O)OC(C)CC[P+](c1ccccc1)(c1ccccc1)c1ccccc1` (stereo not given), the EC50 is > 200 µM and the half-inhibitory concentration (IC50) was found to be 75.9 µM. The matching figures for `CN(COC(=O)C(C)(C)C)c1nc(N(C)COC(=O)C(C)(C)C)nc(N(C)COC(=O)C(C)(C)C)n1`: > 100 µM and 18.6 µM.

On to `COc1cc(-c2ccc(Br)[nH]2)[nH]c1C=NCC(C)C`, for which the EC50 is > 200 µM and the IC50 stood at 10.5 µM. As for `CCOc1ccccc1NC(=O)CSc1nnc(Cc2ccccc2)o1`, the EC50 is > 182 µM and the IC50 stood at 10 µM. The like results for `CCCCOC(=O)C(NC(C(=O)OCCCC)c1cc(C(C)(C)C)c(O)c(C(C)(C)C)c1)c1cc(C(C)(C)C)c(O)c(C(C)(C)C)c1` (stereo not given) were, in that order, > 200 µM and > 200 µM. The matching figures for `CN/N=C(\C(=O)Nc1ccc(C(F)(F)F)cc1[N+](=O)[O-])C(c1cnc2ccc([N+](=O)[O-])cc2n1)[N+](=O)[O-]` (stereo not given): > 251 µM and 138 µM.

With `CCOC1NC(=O)Oc2ccccc21` (stereo not given), the result was inactive. On to `Cc1cccc(C)c1NC(=O)CCCC(=O)C1CC(=O)CCC1=O` (stereo not given), for which the EC50 was > 550 µM and the IC50 was > 550 µM. For the molecule `Cn1c(=O)c2nc(-c3ccccc3)nnc2n(CCO)c1=O`, the EC50 is > 200 µM and the IC50 was determined as 41.7 µM. As for `C=CCC1(C(C)C(O)c2cc(OC)c(OC)c(OC)c2)CC(O)C=CC12OCCO2` (stereo not given), the EC50 is > 200 µM and the IC50 was 9.12 µM. The matching figures for `CC(C)(C)OC(=O)NC(CSCc1ccc(C(=O)c2ccccc2)cc1)C(=O)N1CCN(CCCCN2c3ccccc3Sc3cc(N=[N+]=[N-])ccc32)CC1` (stereo not given): > 200 µM and > 200 µM.

Consider `Cc1cc(O)c(C=O)c2c1C(=O)Oc1c(C)c(O)c(C(=O)O)c(C)c1O2`, for which the EC50 was > 200 µM and the half-maximal inhibitory concentration (IC50) turned out to be 186 µM. As for `COC(=O)[C@@H](O)[C@](O)(CCC(C)C)C(=O)O[C@@H]1C(OC)=C[C@]23CCCN2CCc2cc4c(cc2[C@H]13)OCO4`, the EC50 is > 245 µM and the IC50 turned out to be 0.575 µM. The matching figures for `Cc1cc2cc3ccc(Cl)nn3c2nn1`: > 200 µM and > 200 µM. Consider `O=C(O)c1cc(=O)[nH]c(=O)[nH]1`, for which the result was inactive. Regarding `CCCCCCCCCCCCCCCC(=O)OCC1OC(n2ccc(N)nc2=O)C(O)C1O` (stereo not given), the EC50 is > 0.2 µM and the concentration for half-maximal inhibition (IC50) worked out at 0.0129 µM. The matching figures for `Cc1ccsc1/C=N/Nc1cnccn1`: > 200 µM and 75.9 µM. Turning to `N#C/C(=C/c1ccc([N+](=O)[O-])o1)c1ccccc1`, the EC50 was > 1050 µM and the IC50 stood at 61.7 µM. The like results for `C=C1c2ccccc2N(S(=O)(=O)c2ccc(C)cc2)C12CCCCC2` were, in that order, > 100 µM and 38 µM. Regarding `COc1ccc(-c2c3c(n(C4OC(COC(C)=O)C(OC(C)=O)C(OC(C)=O)C4OC(C)=O)c(=S)c2C#N)CC(C)(C)CC3=O)cc1` (stereo not given), the EC50 was > 200 µM; the half-maximal inhibitory concentration (IC50) is 26.3 µM and 53.7 µM. As to `COc1ccc(C2CC(c3c(O)ccc4ccccc34)=NN2c2ccc([N+](=O)[O-])cc2[N+](=O)[O-])cc1OC` (stereo not given), the EC50 is > 200 µM and the half-inhibitory concentration (IC50) is 15.8 µM. For the molecule `COc1ccc(NC(=O)CC(=O)n2nc(-c3ccccc3)c(N=Nc3ccccc3C)c2-c2ccccc2)cc1`, the EC50 was > 13.5 µM and the half-maximal inhibitory concentration (IC50) was > 13.5 µM. Take `O=C1N(C2CCCCC2)C(=O)N1C1CCCCC1`: the EC50 is 8.32 µM and the IC50 came to 17.8 µM. Consider `CC(C)(C)C(=O)OCC1CCC(n2cnc3c(=O)[nH]c(N)nc32)O1` (stereo not given), for which the EC50 was > 15.5 µM and the concentration for half-maximal inhibition (IC50) is > 15.5 µM. Regarding `CCOP(=O)(OCC)C(c1ccc(F)cc1)N(C(=O)NC(F)(F)F)c1ccc(OC)cc1` (stereo not given), the EC50 was > 200 µM and the IC50 is > 200 µM. For `CC(C)=C1CC(C)(C)N=C1CCN1CCOCC1`, the EC50 was > 200 µM and the IC50 stood at 2.95 µM. The like results for `CCCCC(=O)c1c(O)nc2sccn2c1=O` were, in that order, > 200 µM and 155 µM. With `COc1ccc(/C=C(\C#N)c2nc(-c3cc4ccccc4oc3=O)cs2)cc1`, the EC50 was 162 µM and the half-maximal inhibitory concentration (IC50) is > 200 µM. For the molecule `O=Cc1[nH]c(=O)[nH]c(=O)c1CO`, the EC50 is > 200 µM and the IC50 came out at 93.3 µM. As for `CCCc1cc(=O)oc2c3c(c4c(c12)OC(C)(C)CC4)O[C@H](C)[C@@H](C)[C@H]3O`, the EC50 was > 200 µM and the concentration for half-maximal inhibition (IC50) turned out to be 10.7 µM. Take `O=c1n(-c2ccccc2)c(=O)n2n1C1CC3c4ccccc4C1C2C31CC1` (stereo not given): the EC50 was > 35.5 µM and the IC50 was > 35.5 µM. `C[C@H](O)CCC(=O)c1ccoc1`: the EC50 was > 1480 µM and the IC50 is > 1480 µM. As for `Clc1nc(Cl)nc(-c2ccccc2)n1`, the EC50 was > 200 µM and the concentration for half-maximal inhibition (IC50) is > 200 µM. Take `CC[C@H](C)N(CCN)C(=O)c1cc2ccccc2c(-c2ccccc2Cl)n1`: the outcome was inactive. Regarding `C/C=C(\C)C(=O)c1c(OCC)cc(OCC)c2c(CCC)cc(=O)oc12`, the EC50 is > 126 µM and the concentration for half-maximal inhibition (IC50) turned out to be 1.91 µM. The like results for `CC(C)(C)OC(=O)NC(Cc1ccc(O)cc1)/C(O)=C(\C#N)c1c(F)c(F)c(F)c(F)c1F` (stereo not given) were, in that order, > 200 µM and 123 µM. For `CCOC(=O)C1S/C(=N\C(=N)N[N+](=O)[O-])N=C1C` (stereo not given), the result was inactive. Regarding `CCCN(CCC)C(=O)c1c(Cl)c2cccnc2n2c(C)cnc12`, the EC50 is > 200 µM and the IC50 was determined as 70.8 µM. The like results for `O=c1[nH]c2ccccc2c(O)c1N=Nc1cccc(C(F)(F)F)c1` were, in that order, > 200 µM and > 200 µM. As to `COC(=O)[C@@H]1Cc2c([nH]c3ccccc23)[C@H](c2ccccc2)N1`, the result was inactive. Regarding `BrC(=C(c1ccc(OC2CCCCO2)cc1)c1ccc(OC2CCCCO2)cc1)c1ccccc1` (stereo not given), the EC50 is 70.8 µM and the IC50 was > 200 µM. Take `CC[C@H]1CC(=O)c2c(cc3c(c2O)C(=O)c2ccccc2C3=O)[C@@]1(C#N)C(=O)OC(C)(C)C`: the outcome was inactive. In the case of `CCCCCCCCCCCC(=O)OCC1OC(n2cc(F)c(=O)[nH]c2=O)C(NC(=O)OCc2ccccc2)C(OC(=O)CCCCCCCCCCC)C1O` (stereo not given), the EC50 was > 6.61 µM and the half-inhibitory concentration (IC50) was > 6.61 µM. Consider `CC(C)(C)N=CN1C=Cc2nc3ccccc3cc2C1`, for which the result was inactive. Take `COC(=O)C(Cc1ccccc1)C(=O)C(CC(=O)OC(C)(C)C)NC(=O)OC(C)(C)C` (stereo not given): the EC50 is > 200 µM and the concentration for half-maximal inhibition (IC50) is > 200 µM. Turning to `CC(=O)NNC(=S)N/C=C(\C#N)c1nc2ccccc2s1`, the EC50 was > 200 µM and the IC50 is > 200 µM. For `COc1cc(/C=C2\C=Cc3ccccc32)cc(OC)c1OC`, the EC50 was > 24.5 µM and the concentration for half-maximal inhibition (IC50) is > 24.5 µM. For the molecule `Cc1cc2ncn(-c3nc4ccccc4nc3C(C#N)S(C)(=O)=O)c2cc1C` (stereo not given), the EC50 was > 646 µM and the 50% inhibitory concentration (IC50) turned out to be 57.5 µM. With `N#C/C(=C1\SC(N=Nc2ccc(Cl)cc2)C(=O)N1c1ccccc1)c1nc2ccccc2[nH]1` (stereo not given), the EC50 is > 3.8 µM and the concentration for half-maximal inhibition (IC50) was > 3.8 µM. Consider `CCC1=C2C(=O)c3ccccc3C2=C(C)S(=O)(=O)O1`, for which the EC50 was 257 µM and the half-inhibitory concentration (IC50) came out at 263 µM. The matching figures for `COc1ccc(C(=O)N2CCN(c3ccc4[nH]c(=O)oc4c3)CC2)cc1`: > 200 µM and > 200 µM. As to `O=c1[nH]nc2ccc(n[nH]c1=O)c1ccccc21`, the EC50 was > 200 µM and the half-inhibitory concentration (IC50) amounted to 7.41 µM. Turning to `O=C1CCCCN1`, the outcome was inactive.

As to `O=C1CCC(N2C(=O)C3CCCCC3C2=O)C(=O)N1` (stereo not given), the EC50 was > 200 µM and the IC50 was > 200 µM. Consider `CN(C(=O)c1cccs1)C(=S)N1CCN(c2ccccc2)CC1`, for which the EC50 was > 55 µM and the 50% inhibitory concentration (IC50) worked out at 30.9 µM. The matching figures for `O=C1NCC(c2ccccc2)(c2ccccc2)O1`: > 200 µM and 151 µM. Turning to `O=C(N/N=C/c1ccccn1)c1ccccc1[O-].O=C(N/N=C/c1ccccn1)c1ccccc1[O-].[Co+2]`, the EC50 was > 200 µM and the concentration for half-maximal inhibition (IC50) stood at 33.9 µM. As for `CCOC(=O)Cc1nc2ccc3c(c2[nH]c1=O)C(=O)c1ccccc1C3=O`, the EC50 is > 14.5 µM and the half-inhibitory concentration (IC50) was > 14.5 µM.

On to `COc1cc(/C=C2\SC(=S)N(/C=C(/C#N)C(=O)c3ccc4ccccc4c3)C2=O)cc(OC)c1OC`, for which the EC50 is > 200 µM and the half-maximal inhibitory concentration (IC50) was found to be 14.8 µM. The like results for `CCOC(=O)c1[nH]n(-c2ccccc2)c(=O)c1/C=N/C(N)=S` were, in that order, > 200 µM and > 200 µM. Take `Cc1ccccc1-n1c(=S)n(-c2ccccn2)c2nc3ccccc3nc1/c2=N/Nc1ccccn1`: the EC50 was > 162 µM.

For the molecule `CNC(=O)OCCOC(=O)c1ccc(OC(=O)NC)cc1`, the EC50 is > 200 µM and the half-maximal inhibitory concentration (IC50) was found to be 70.8 µM. The like results for `CC(NC(=O)C(Cc1ccccc1)NC(=O)C(Cc1ccccc1)NC(=O)OC(C)(C)C)C(=O)OCc1ccccc1` (stereo not drawn) (Boc-Phe-Phe-Ala-OBn; configuration not given here) were, in that order, > 200 µM and 60.3 µM. `Cc1cc2c(C(C)C)c(O)c(O)c(C=Nc3cccc(C(F)(F)F)c3)c2c(O)c1-c1c(C)cc2c(C(C)C)c(O)c(O)c(C=Nc3cccc(C(F)(F)F)c3)c2c1O`: the outcome was inactive. For `c1ccc2sc(SCN3CCN(CSc4nc5ccccc5s4)CC3)nc2c1`, the EC50 was > 1.62 µM and the IC50 was > 1.62 µM.

Consider `O=C(O)/C=C/CCC1SCC2NC(=O)NC21` (stereo not given), for which the EC50 was > 107 µM and the IC50 is > 107 µM.
